This experiment has as its system P388 leukemia ip, CD2F1 mice, survival T/C. The experiment can be described thus: NCI In Vivo Anticancer Drug Screen. Data for tumor model P388 Leukemia (intraperitoneal) in CD2F1 (CDF1) mice. The following applies: endpoint: median survival time, higher = longer survival. In a few lines:
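Mice carrying the transplanted tumor received test compound or vehicle. Survival was recorded in each group, and the value is the treated-group measurement divided by that of the vehicle-treated control group.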

The mark [1] stands for this setting: dose: 50.0 mg/kg/injection, schedule: Q01DX009 (ip), vehicle: saline with Tween-80.
Where [2] appears, read: dose: 100.0 mg/kg/injection, schedule: Q01DX009 (ip), vehicle: saline with Tween-80.
The mark [3] stands for this setting: dose: 200.0 mg/kg/injection, schedule: Q01DX009 (ip), vehicle: saline with Tween-80.
The mark [4] stands for this setting: dose: 50.0 mg/kg/injection, schedule: Q01DX005 (ip), vehicle: Klucel (hydroxypropylcellulose) (HPC).
Where [5] appears, read: dose: 100.0 mg/kg/injection, schedule: Q01DX005 (ip), vehicle: Klucel (hydroxypropylcellulose) (HPC).
Setting [6] is: dose: 50.0 mg/kg/injection, schedule: Q01DX005 (ip), vehicle: saline with Tween-80.
Setting [7] is: dose: 100.0 mg/kg/injection, schedule: Q01DX005 (ip), vehicle: saline with Tween-80.
Setting [8] is: dose: 60.0 mg/kg/injection, schedule: Q01DX005 (ip), vehicle: saline with Tween-80.
Setting [9] is: dose: 120.0 mg/kg/injection, schedule: Q01DX005 (ip), vehicle: saline with Tween-80.
[10] abbreviates: dose: 240.0 mg/kg/injection, schedule: Q01DX005 (ip), vehicle: saline with Tween-80.
Where [11] appears, read: dose: 60.0 mg/kg/injection, schedule: Q01DX005 (ip), vehicle: Klucel (hydroxypropylcellulose) (HPC).
[12] abbreviates: dose: 120.0 mg/kg/injection, schedule: Q01DX005 (ip), vehicle: Klucel (hydroxypropylcellulose) (HPC).
The mark [13] stands for this setting: dose: 240.0 mg/kg/injection, schedule: Q01DX005 (ip), vehicle: Klucel (hydroxypropylcellulose) (HPC).

Here are results for 21 compounds from PubChem BioAssay AID330 (DTP/NCI, 2004).

SMILES strings stand for the structures. Values joined by “and” are separate entries in the source; they are usually repeats but may differ in a detail not shown here. Identical values can stand only once. Toxic doses and inconclusive results are not listed.

In the case of `CC(=O)OCC1OC(Oc2ncccn2)C(OC(C)=O)C1OC(C)=O` (stereo not drawn), the T/C is, setting by setting: (dose: 50.0 mg/kg/injection, schedule: Q01DX009 (ip), vehicle: saline) 98 % of control; (dose: 50.0 mg/kg/injection, schedule: Q01DX009 (ip), vehicle: suspension in saline) 100 % of control; (dose: 100.0 mg/kg/injection, schedule: Q01DX009 (ip), vehicle: saline) 103 % of control; (dose: 100.0 mg/kg/injection, schedule: Q01DX009 (ip), vehicle: suspension in saline) 99 % of control; (dose: 200.0 mg/kg/injection, schedule: Q01DX009 (ip), vehicle: saline) 100 % of control; (dose: 200.0 mg/kg/injection, schedule: Q01DX009 (ip), vehicle: suspension in saline) 99 % of control. For the same compound, the T/C was 99 % of control (dose: 400.0 mg/kg/injection, schedule: Q01DX009 (ip), vehicle: saline) and 96 % of control (dose: 400.0 mg/kg/injection, schedule: Q01DX009 (ip), vehicle: suspension in saline).
Take `N#CC1C(=O)NC(=S)NC1c1ccc(C2CC(=O)NC(=S)N2)cc1` (stereo not drawn): the T/C was 104 % of control under setting [1], 105 % of control under setting [2] and 106 % of control under setting [3].
Turning to `Cn1c2ccccc2c2cc3c(cc21)C(=O)OC3=O`, the T/C runs as follows: (dose: 3.12 mg/kg/injection, schedule: Q01DX005 (ip), vehicle: Klucel (hydroxypropylcellulose) (HPC)) 100 % of control; (dose: 6.25 mg/kg/injection, schedule: Q01DX005 (ip), vehicle: Klucel (hydroxypropylcellulose) (HPC)) 93 % of control; (dose: 12.5 mg/kg/injection, schedule: Q01DX005 (ip), vehicle: Klucel (hydroxypropylcellulose) (HPC)) 90 % of control; under setting [4], 88 % of control; under setting [5], 90 % of control.
Take `COc1cccc2c1C(=O)c1c(O)c3c(c(O)c1C2=O)CC(O)(c1cscn1)CC3OC1CC(N)C(O)C(C)O1` (stereo not drawn): the T/C is, setting by setting: (dose: 25.0 mg/kg/injection, schedule: Q04DX003 (ip), vehicle: water) 118 % of control; (dose: 50.0 mg/kg/injection, schedule: Q04DX003 (ip), vehicle: water) 157 % of control; (dose: 100.0 mg/kg/injection, schedule: Q04DX003 (ip), vehicle: water) 124 % of control.
With `CC(=O)Nc1cc2nc[nH]c2cn1`, the T/C by setting is: (dose: 100.0 mg/kg/injection, schedule: Q04DX002 (ip), vehicle: saline) 99 % of control; (dose: 200.0 mg/kg/injection, schedule: Q04DX002 (ip), vehicle: saline) 106 % of control; (dose: 400.0 mg/kg/injection, schedule: Q04DX002 (ip), vehicle: saline) 106 % of control.
As for `Cc1ccc(S(=O)(=O)Nc2cccc3c(NS(=O)(=O)c4ccc(C)cc4)cccc23)cc1`, the T/C under setting [2] was 100 % of control; the T/C (dose: 100.0 mg/kg/injection, schedule: Q04DX003 (ip), vehicle: saline with Tween-80) was 100 % of control; the T/C under setting [3] was 95 % of control; the T/C (dose: 200.0 mg/kg/injection, schedule: Q04DX003 (ip), vehicle: saline with Tween-80) is 90 % of control; the T/C (dose: 400.0 mg/kg/injection, schedule: Q04DX003 (ip), vehicle: saline with Tween-80) is 100 % of control.
Regarding `Clc1ccccc1C(Nc1ncccn1)Nc1ncccn1`, the T/C runs as follows: under setting [4], 93 % of control; under setting [5], 93 % of control; (dose: 200.0 mg/kg/injection, schedule: Q01DX005 (ip), vehicle: Klucel (hydroxypropylcellulose) (HPC)) 96 % of control.
For `Cc1ccc(OP(=O)(Oc2ccc(C)cc2)Oc2ccc(C)cc2)cc1.Cc1ccc(OP(=O)(Oc2ccc(C)cc2)Oc2ccc(C)cc2)cc1.[Cl][Ni][Cl]`, the T/C was 102 % of control (dose: 12.5 mg/kg/injection, schedule: Q04DX003 (ip), vehicle: Klucel (hydroxypropylcellulose) (HPC)); 100 % of control and 109 % of control and 114 % of control (dose: 25.0 mg/kg/injection, schedule: Q04DX003 (ip), vehicle: Klucel (hydroxypropylcellulose) (HPC)); 100 % of control and 102 % of control (dose: 50.0 mg/kg/injection, schedule: Q04DX003 (ip), vehicle: Klucel (hydroxypropylcellulose) (HPC)).
For the compound `COc1ccc(CCNC(=O)c2cc3ccccc3oc2=O)cc1OC`, the T/C under setting [1] is 94 % of control, the T/C under setting [2] was 96 % of control and the T/C under setting [3] is 97 % of control.
Regarding `OCCc1cc(Cl)no1`, the T/C under setting [6] is 100 % of control; the T/C under setting [7] was 102 % of control; the T/C (dose: 200.0 mg/kg/injection, schedule: Q01DX005 (ip), vehicle: saline with Tween-80) was 109 % of control.
With `COC(=O)C(=O)c1c(-c2ccc(Cl)c(Cl)c2)[nH]c2[nH]n(-c3ccccc3)c(=O)c2c1=O`, the T/C reads like this: under setting [8], 94 % of control; under setting [9], 88 % of control; under setting [10], 88 % of control.
Turning to `N#CC(Br)(Br)C#N`, the T/C reads like this: (dose: 3.13 mg/kg/injection, schedule: Q01DX009 (ip), vehicle: Klucel (hydroxypropylcellulose) (HPC)) 117 % of control; (dose: 6.25 mg/kg/injection, schedule: Q01DX009 (ip), vehicle: Klucel (hydroxypropylcellulose) (HPC)) 114 % of control.
Take `COC(=O)/C=C/c1cc(=O)nc2sc3ccccc3n12`: the T/C is 93 % of control under setting [11], 93 % of control under setting [12] and 94 % of control under setting [13].
`c1ccc2c(c1)[nH]c1c2nc2sccn21`: the T/C was 115 % of control under setting [11], 115 % of control under setting [12] and 116 % of control under setting [13].
On to `CCn1c2c(c3ccccc31)CCSC2(C)CCN(C)C` (stereo not drawn), for which the T/C (dose: 25.0 mg/kg/injection, schedule: Q01DX009 (ip), vehicle: saline with Tween-80) was 105 % of control; the T/C under setting [1] is 96 % of control; the T/C under setting [2] was 117 % of control.
As for `O=C(O[Si](Cc1ccccc1)(Cc1ccccc1)Cc1ccccc1)N(CCCl)CCCl`, the T/C runs as follows: (dose: 12.5 mg/kg/injection, schedule: Q04DX002 (ip), vehicle: saline with Tween-80) 111 % of control; (dose: 25.0 mg/kg/injection, schedule: Q04DX002 (ip), vehicle: saline with Tween-80) 120 % of control; (dose: 25.0 mg/kg/injection, schedule: Q04DX003 (ip), vehicle: saline) 154 % of control; (dose: 50.0 mg/kg/injection, schedule: Q04DX002 (ip), vehicle: saline with Tween-80) 159 % of control; (dose: 50.0 mg/kg/injection, schedule: Q04DX003 (ip), vehicle: saline) 214 % of control; (dose: 100.0 mg/kg/injection, schedule: Q04DX002 (ip), vehicle: saline with Tween-80) 180 % of control.
With `O=NC1C2CCC(C2)C1N=O.[Co].[c-]1[c-][c-][cH-][c-]1` (stereo not drawn), the T/C by setting is: (dose: 12.5 mg/kg/injection, schedule: Q01DX005 (ip), vehicle: saline with Tween-80) 96 % of control; (dose: 25.0 mg/kg/injection, schedule: Q01DX005 (ip), vehicle: saline with Tween-80) 98 % of control; under setting [6], 98 % of control and 92 % of control.
Turning to `COc1ccc2nc(N=Nc3ccc(N4CCOCC4)cc3C)sc2c1`, the T/C was 86 % of control (dose: 100.0 mg/kg/injection, schedule: Q01DX001 (ip), vehicle: Klucel (hydroxypropylcellulose) (HPC)); 86 % of control (dose: 200.0 mg/kg/injection, schedule: Q01DX001 (ip), vehicle: Klucel (hydroxypropylcellulose) (HPC)); 88 % of control (dose: 400.0 mg/kg/injection, schedule: Q01DX001 (ip), vehicle: Klucel (hydroxypropylcellulose) (HPC)).
`COc1cc(Br)c(CC(NC=O)c2ccc(OC)c(OC)c2OC)cc1OC` (stereo not drawn): the T/C by setting is: under setting [8], 107 % of control; under setting [9], 100 % of control; under setting [10], 100 % of control.
For `CN(C)c1ccc(/C=N/NC(=O)C(O)(c2ccccc2)c2ccccc2)cc1`, the T/C reads like this: under setting [8], 102 % of control; under setting [9], 102 % of control; under setting [10], 96 % of control.
For `O=[N+]([O-])c1ccc(N=Nc2ccc(NNc3ccc([N+](=O)[O-])cn3)c3cc4ccccc4cc23)nc1`, the T/C was 100 % of control under setting [6] and 110 % of control under setting [7].
